Reference: patent US20150105252A1, “SUBSTITUTED PYRAZOLES AS HERBICIDES” (E I DU PONT DE NEMOURS AND COMPANY, priority 2013, published 2015)

Tests used:
johnsongrass = assay: Test E preemergence; assay type: in vivo, Sorghum halepense; conditions: 21 days, scale 0 to 100
Text: (§1) Seeds of plant species selected from bermudagrass (Cynodon dactylon), Surinam grass (Brachiaria decumbens), crabgrass, large (large crabgrass, Digitaria sanguinalis), crabgrass, naked (naked crabgrass, Digitaria nuda), foxtail, green (green foxtail, Setaria viridis), johnsongrass (Sorghum halepense), kochia (Kochia scoparia), morningglory (pitted morningglory, Ipomoea lacunosa), nutsedge, purple (purple nutsedge, Cyperus rotundus), ragweed (common ragweed, Ambrosia elation), mustard, black (black mustard, Brassica nigra), guineagrass (Panicum maximum), dallisgrass (Paspalum dilatatum), barnyardgrass (Echinochloa crus-galli), sandbur (southern sandbur, Cenchrus echinatus), sowthistle (common sowthistle, Sonchus oleraceous), ryegrass, Italian (Italian ryegrass, Lolium multiflorum), signalgrass (broadleaf signalgrass, Brachiaria platyphylla), dayflower, VA (Virginia (VA) dayflower, Commelina virginica), bluegrass (annual bluegrass, Poa annua), quackgrass (Elytrigia repens), mallow (common mallow, Malva sylvestris), buckwheat, wild (wild buckwheat, Polygonum convolvulus), leafy spurge (Euphorbia esula), common chickweed (Stellaria media), wild poinsettia (Euphorbia heterophylla), pigweed, palmer (palmer pigweed, Amaranthus palmeri), and pigweed (redroot pigweed, Amaranthus retroflexus) were planted into a blend of loam soil and sand and treated preemergence with test chemicals formulated in a non-phytotoxic solvent mixture which included a surfactant.
(§2) Treated plants and controls were maintained in a greenhouse for 21 days, after which time all species were compared to controls and visually evaluated. Plant response ratings, summarized in Table E, are based on a scale of 0 to 100 where 0 is no effect and 100 is complete control. A dash (-) response means no test result.

soybean = assay: Test F postemergence; assay type: in vivo, Glycine max; conditions: scale 0 to 100
Text: (§3) Seeds of plant species selected from corn (Zea mays), soybean (Glycine max), velvetleaf (Abutilon theophrasti), lambsquarters (Chenopodium album), wild poinsettia (Euphorbia heterophylla), pigweed, palmer (palmer pigweed, Amaranthus palmeri), common waterhemp (Amaranthus rudis), surinam grass (Brachiaria decumbens), large crabgrass (Digitaria sanguinalis), crabgrass, Brazil (Brazilian crabgrass, Digitaria horizontalis), fall panicum (Panicum dichotomiflorum), giant foxtail (Setaria faberii), green foxtail (Setaria viridis), goosegrass (Eleusine indica), johnsongrass (Sorghum halepense), common ragweed (Ambrosia elation), barnyardgrass (Echinochloa crus-galli), southern sandbur (Cenchrus echinatus), arrowleaf sida (Sida rhombifolia), Italian ryegrass (Lolium multiflorum), dayflower, VA (Virginia (VA) dayflower, Commelina virginica), field bindweed (Convolvulus arvensis), cocklebur (common cocklebur, Xanthium strumarium), morningglory (Ipomoea coccinea), nightshade (eastern black nightshade, Solanum ptycanthum), kochia (Kochia scoparia), yellow nutsedge (Cyperus esculentus), and hairy beggarticks (Bidens pilosa), were planted into a silt loam soil and treated preemergence with test chemicals formulated in a non-phytotoxic solvent mixture which included a surfactant.
(§4) At the same time, plants from these crop and weed species and also horseweed (Canada horseweed, Conyza canadensis), smartweed (ladysthumb smartweed, Polygonum persicaria), waterhemp_RES1, (ALS & Triazine resistant common waterhemp, Amaranthus rudis), and waterhemp_RES2, (ALS & HPPD resistant common waterhemp, Amaranthus rudis) were treated with postemergence applications of test chemicals formulated in the same manner. Plants ranged in height from 2 to 18 cm for postemergence treatments (1- to 4-leaf stage). Treated plants and controls were maintained in a greenhouse for 14 to 21 days, after which time all species were compared to controls and visually evaluated. Plant response ratings, summarized in Table F, are based on a scale of 0 to 100 where 0 is no effect and 100 is complete control. A dash (-) response means no test result.

Italian ryegrass = assay: Test F postemergence; assay type: in vivo, Lolium multiflorum; conditions: scale 0 to 100
Text: as §3, §4

pigweed = assay: Test E preemergence; assay type: in vivo, Amaranthus retroflexus; conditions: 21 days, scale 0 to 100
Text: as §1, §2

kochia = assay: Test E preemergence; assay type: in vivo, Kochia scoparia; conditions: 21 days, scale 0 to 100
Text: as §1, §2

leafy spurge = assay: Test E preemergence; assay type: in vivo, Euphorbia esula; conditions: 21 days, scale 0 to 100
Text: as §1, §2

crabgrass, naked = assay: Test E preemergence; assay type: in vivo, Digitaria nuda; conditions: 21 days, scale 0 to 100
Text: as §1, §2

SMILES	Plant response rating, Johnsongrass (johnsongrass; 16 g ai/ha)	Plant response rating, Johnsongrass (johnsongrass; 31 g ai/ha)	Plant response rating, Johnsongrass (johnsongrass; 62 g ai/ha)	Plant response rating, Johnsongrass (johnsongrass; 125 g ai/ha)	Plant response rating, Johnsongrass (johnsongrass; 250 g ai/ha)	Plant response rating, Pigweed (pigweed; 16 g ai/ha)	Plant response rating, Pigweed (pigweed; 31 g ai/ha)	Plant response rating, Pigweed (pigweed; 62 g ai/ha)	Plant response rating, Pigweed (pigweed; 125 g ai/ha)	Plant response rating, Pigweed (pigweed; 250 g ai/ha)	Plant response rating, Kochia (kochia; 16 g ai/ha)	Plant response rating, Kochia (kochia; 31 g ai/ha)	Plant response rating, Kochia (kochia; 62 g ai/ha)	Plant response rating, Kochia (kochia; 125 g ai/ha)	Plant response rating, Kochia (kochia; 250 g ai/ha)	Plant response rating, Leafy Spurge (leafy spurge; 16 g ai/ha)	Plant response rating, Leafy Spurge (leafy spurge; 31 g ai/ha)	Plant response rating, Leafy Spurge (leafy spurge; 62 g ai/ha)	Plant response rating, Leafy Spurge (leafy spurge; 125 g ai/ha)	Plant response rating, Leafy Spurge (leafy spurge; 250 g ai/ha)	also measured
CCc1cc(C(=O)NCC(F)(F)F)nn1Cc1ccnc(C(F)(F)F)c1 [Compound 78, 5-ethyl-N-(2,2,2-trifluoroethyl)-1-[[(2-trifluoromethyl)-4-pyridinyl]methyl]-1H-pyrazole-3-carboxamide]	40	80	85	100	100	100	100	100	100	100	100	100	100	100	100	80	100	100	100	100	Plant response rating, Soybean (soybean; Postemergence, 31 g ai/ha): 75; Plant response rating, Soybean (soybean; Postemergence, 250 g ai/ha): 95; Plant response rating, Soybean (soybean; postemergence, 62 g ai/ha): 80; Plant response rating, Soybean (soybean; postemergence, 500 g ai/ha): 100; Plant response rating, Italian Ryegrass (Italian ryegrass; Postemergence, 31 g ai/ha): 0; Plant response rating, Italian Ryegrass (Italian ryegrass; Postemergence, 125 g ai/ha): 40; Plant response rating, Italian Ryegrass (Italian ryegrass; Postemergence, 250 g ai/ha): 60; Plant response rating, Italian Ryegrass (Italian ryegrass; postemergence, 62 g ai/ha): 10; Plant response rating, Italian Ryegrass (Italian ryegrass; postemergence, 500 g ai/ha): 90; Plant response rating, Crabgrass, Naked (crabgrass, naked; 31 g ai/ha): 95; Plant response rating, Crabgrass, Naked (crabgrass, naked; 62 g ai/ha): 95; Plant response rating, Crabgrass, Naked (crabgrass, naked; 125 g ai/ha): 100; Plant response rating, Crabgrass, Naked (crabgrass, naked; 250 g ai/ha): 100
CCc1cc(C(=O)NC(C)C)nn1Cc1ccnc(C(F)(F)F)c1 [Compound 103]	70	100	100	100	100	100	100	100	100	100	95	100	100	100	100	75	95	100	100	100	Plant response rating, Crabgrass, Naked (crabgrass, naked; 16 g ai/ha): 100; Plant response rating, Crabgrass, Naked (crabgrass, naked; 31 g ai/ha): 100; Plant response rating, Crabgrass, Naked (crabgrass, naked; 62 g ai/ha): 100; Plant response rating, Crabgrass, Naked (crabgrass, naked; 125 g ai/ha): 100; Plant response rating, Crabgrass, Naked (crabgrass, naked; 250 g ai/ha): 100
CCOc1cc(C(=O)NCC(F)(F)F)nn1Cc1ccnc(C(F)(F)F)c1 [Compound 104]	95	100	100	100	100	100	100	100	100	100	100	100	100	100	100	100	98	100	98	100	Plant response rating, Soybean (soybean; Postemergence, 31 g ai/ha): 95; Plant response rating, Soybean (soybean; Postemergence, 125 g ai/ha): 98; Plant response rating, Soybean (soybean; Postemergence, 250 g ai/ha): 98; Plant response rating, Soybean (soybean; postemergence, 62 g ai/ha): 95; Plant response rating, Soybean (soybean; postemergence, 500 g ai/ha): 95; Plant response rating, Italian Ryegrass (Italian ryegrass; Postemergence, 31 g ai/ha): 0; Plant response rating, Italian Ryegrass (Italian ryegrass; Postemergence, 125 g ai/ha): 35; Plant response rating, Italian Ryegrass (Italian ryegrass; Postemergence, 250 g ai/ha): 60; Plant response rating, Italian Ryegrass (Italian ryegrass; postemergence, 62 g ai/ha): 15; Plant response rating, Italian Ryegrass (Italian ryegrass; postemergence, 500 g ai/ha): 85; Plant response rating, Crabgrass, Naked (crabgrass, naked; 16 g ai/ha): 95; Plant response rating, Crabgrass, Naked (crabgrass, naked; 31 g ai/ha): 100; Plant response rating, Crabgrass, Naked (crabgrass, naked; 62 g ai/ha): 100; Plant response rating, Crabgrass, Naked (crabgrass, naked; 125 g ai/ha): 100; Plant response rating, Crabgrass, Naked (crabgrass, naked; 250 g ai/ha): 100
